Data as given in ChEMBL document CHEMBL3875233, “Non-kinase targets of protein kinase inhibitors” (Nat Rev Drug Discov, 2017).

Tests used:
[1] = target: T1, Ribosyldihydronicotinamide dehydrogenase [quinone] (Homo sapiens, UniProt P16083)
T1 sequence (P16083 whole entry): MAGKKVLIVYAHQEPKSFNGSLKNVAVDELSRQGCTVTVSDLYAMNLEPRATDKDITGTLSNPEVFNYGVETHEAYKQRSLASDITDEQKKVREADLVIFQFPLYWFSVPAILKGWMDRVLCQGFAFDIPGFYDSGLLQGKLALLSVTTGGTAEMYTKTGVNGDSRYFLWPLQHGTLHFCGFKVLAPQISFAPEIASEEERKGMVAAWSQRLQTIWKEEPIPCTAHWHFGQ
Description: Inhibition of kinobead binding to NQO2 in human K562 cells incubated for 30 mins by iTRAQ reagent-based mass spectrometric method

[2] = target: T2, Bromodomain-containing protein 4 (Homo sapiens, UniProt O60885)
Description: Binding affinity to recombinant human His6-TEV protease-tagged BRD4 bromodomain 1 expressed in bacteria by isothermal titration calorimetric method

[3] = Inhibition of porcine brain tubulin polymerization measured every min during incubation by fluorescence assay; parameters: species or system Sus scrofa
[4] = target: T3, Ferrochelatase, mitochondrial (Homo sapiens, UniProt P22830); assay: Stabilization of FECH in human K562 cells after 1 hr by thermal shift assay; format: cell-based
T3 sequence (P22830 whole entry): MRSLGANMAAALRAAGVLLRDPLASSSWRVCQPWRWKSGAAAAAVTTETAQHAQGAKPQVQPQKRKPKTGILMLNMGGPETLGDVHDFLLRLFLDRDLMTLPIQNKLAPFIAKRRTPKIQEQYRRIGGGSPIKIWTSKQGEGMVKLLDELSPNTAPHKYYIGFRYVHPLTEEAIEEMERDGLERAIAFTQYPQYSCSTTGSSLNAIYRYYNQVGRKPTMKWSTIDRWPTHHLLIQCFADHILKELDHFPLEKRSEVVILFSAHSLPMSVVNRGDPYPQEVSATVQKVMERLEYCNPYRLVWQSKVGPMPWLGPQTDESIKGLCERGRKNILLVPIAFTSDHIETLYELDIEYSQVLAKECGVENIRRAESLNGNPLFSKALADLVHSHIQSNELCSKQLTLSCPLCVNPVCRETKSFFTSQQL

[5] = target: Oxidized purine nucleoside triphosphate hydrolase (Homo sapiens, UniProt P36639)
Description: Inhibition of DsRed-fused MTH1 (unknown origin) expressed in HEK293T cells using 8-oxo-dGTP as substrate

[6] = target: Bromodomain testis-specific protein (Homo sapiens) (UniProt Q58F21)
[7] = target: T2, Bromodomain-containing protein 4; remark: listed apart in the source
[8] = target: Indoleamine 2,3-dioxygenase 1 (Homo sapiens, UniProt P14902); assay: Inhibition of recombinant human IDO using L-tryptophan as substrate after 60 mins
[9] = target: T4, Receptor-interacting serine/threonine-protein kinase 1 (Homo sapiens, UniProt Q13546); assay: Inhibition of recombinant human GST-fused RIPK1 (1 to 497 residues) expressed in baculovirus infected insect Sf9 cells in presence of 32P-gamma-ATP after 30 mins by autoradiogram-based Western blot method
T4 sequence (Q13546 whole entry): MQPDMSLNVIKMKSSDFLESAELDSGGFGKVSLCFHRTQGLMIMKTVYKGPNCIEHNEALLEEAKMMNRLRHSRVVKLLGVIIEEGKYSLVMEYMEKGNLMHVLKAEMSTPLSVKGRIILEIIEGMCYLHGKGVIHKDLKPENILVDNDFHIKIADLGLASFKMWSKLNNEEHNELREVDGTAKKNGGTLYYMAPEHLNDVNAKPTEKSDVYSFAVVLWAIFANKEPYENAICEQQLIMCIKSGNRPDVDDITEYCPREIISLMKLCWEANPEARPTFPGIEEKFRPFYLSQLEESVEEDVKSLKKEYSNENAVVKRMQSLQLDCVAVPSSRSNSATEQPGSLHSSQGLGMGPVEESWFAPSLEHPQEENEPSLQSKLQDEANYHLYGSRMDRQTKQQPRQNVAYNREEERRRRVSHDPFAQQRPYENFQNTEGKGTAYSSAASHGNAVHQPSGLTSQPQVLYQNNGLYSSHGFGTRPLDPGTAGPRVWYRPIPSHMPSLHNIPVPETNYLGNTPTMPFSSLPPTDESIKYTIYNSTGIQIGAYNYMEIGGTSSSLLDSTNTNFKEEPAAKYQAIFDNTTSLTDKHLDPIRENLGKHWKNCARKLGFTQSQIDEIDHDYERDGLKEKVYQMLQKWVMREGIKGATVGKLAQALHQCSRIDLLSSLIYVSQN

[10] = target: T5, Receptor-type tyrosine-protein kinase FLT3 (Homo sapiens, UniProt P36888); assay: Inhibition of FLT3 (unknown origin)
T5 sequence (P36888 whole entry): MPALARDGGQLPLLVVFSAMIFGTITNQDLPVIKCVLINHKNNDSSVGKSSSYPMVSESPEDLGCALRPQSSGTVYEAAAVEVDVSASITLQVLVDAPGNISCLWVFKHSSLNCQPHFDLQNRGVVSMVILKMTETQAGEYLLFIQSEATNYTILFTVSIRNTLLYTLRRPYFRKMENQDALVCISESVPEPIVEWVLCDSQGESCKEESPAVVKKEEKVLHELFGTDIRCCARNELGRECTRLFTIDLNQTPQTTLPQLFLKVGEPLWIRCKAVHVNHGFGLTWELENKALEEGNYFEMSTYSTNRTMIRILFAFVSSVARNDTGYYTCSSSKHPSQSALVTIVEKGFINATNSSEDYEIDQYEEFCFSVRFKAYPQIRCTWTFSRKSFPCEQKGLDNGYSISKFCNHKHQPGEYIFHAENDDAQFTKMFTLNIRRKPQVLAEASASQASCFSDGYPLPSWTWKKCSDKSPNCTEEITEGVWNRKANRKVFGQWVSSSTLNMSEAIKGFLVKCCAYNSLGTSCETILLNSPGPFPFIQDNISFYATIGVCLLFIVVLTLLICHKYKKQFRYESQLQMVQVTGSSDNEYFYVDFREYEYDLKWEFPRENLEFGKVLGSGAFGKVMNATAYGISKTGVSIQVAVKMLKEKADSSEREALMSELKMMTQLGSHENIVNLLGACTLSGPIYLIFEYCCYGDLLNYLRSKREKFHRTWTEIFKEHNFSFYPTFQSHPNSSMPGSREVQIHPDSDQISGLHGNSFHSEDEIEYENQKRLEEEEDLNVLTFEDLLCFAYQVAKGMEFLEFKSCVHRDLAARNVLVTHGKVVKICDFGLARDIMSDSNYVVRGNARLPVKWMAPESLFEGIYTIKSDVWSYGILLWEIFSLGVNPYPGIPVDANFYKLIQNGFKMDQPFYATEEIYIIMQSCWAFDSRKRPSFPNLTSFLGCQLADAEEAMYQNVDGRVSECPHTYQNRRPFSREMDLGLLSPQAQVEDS

[11] = Inhibition of tubulin (unknown origin) polymerization by spectrophotometric method; parameters: species or system Homo sapiens
[12] = target: MAP kinase-activated protein kinase 2 (Homo sapiens, UniProt P49137); assay: Inhibition of recombinant MK2 (45 to 400 residues) (unknown origin) using fluorescein isothiocyanate-KKKALSRQLSVAA as substrate
[13] = Inhibition of tubulin polymerization in human U87 cells assessed as decrease in cell viability after 72 hrs by Alamar blue assay; format: cell-based, U-87MG ATCC; conditions: U-87 MG
[14] = target: Mitogen-activated protein kinase 14 (Mus musculus, UniProt P47811); assay: Inhibition of mouse N-terminal 5His-tagged p38alpha assessed as decrease in 6His-tagged MK2a (51 to 400 residues) phosphorylation in presence of [gamma-33P]-ATP by scintillation counting method
[15] = target: Bromodomain-containing protein 3 (Homo sapiens, UniProt Q15059); assay: Inhibition of immobilized N-LY294002 bead binding to BRD3 (unknown origin) expressed in HEK293T cell nuclear extract incubated for 1 hr by LC-MS/MS analysis; parameters: species or system HEK-293T
[16] = target: T2, Bromodomain-containing protein 4; assay: Inhibition of immobilized N-LY294002 bead binding to C-terminal Flag-tagged BRD4 (unknown origin) expressed in HEK293T cell nuclear extract incubated for 1 hr by LC-MS/MS analysis; parameters: species or system HEK-293T
[17] = target: Bromodomain-containing protein 2 (Homo sapiens, UniProt P25440); assay: Inhibition of immobilized N-LY294002 bead binding to BRD2 (unknown origin) expressed in HEK293T cell nuclear extract incubated for 1 hr by LC-MS/MS analysis; parameters: species or system HEK-293T
[18] = target: T6, Phosphatidylinositol 4,5-bisphosphate 3-kinase catalytic subunit delta isoform (Homo sapiens, UniProt O00329); assay: Inhibition of immobilized N-LY294002 bead binding to PI3Kdelta (unknown origin) expressed in HEK293T cells incubated for 1 hr by LC-MS/MS analysis; format: cell-based, HEK-293T
T6 sequence (O00329 whole entry): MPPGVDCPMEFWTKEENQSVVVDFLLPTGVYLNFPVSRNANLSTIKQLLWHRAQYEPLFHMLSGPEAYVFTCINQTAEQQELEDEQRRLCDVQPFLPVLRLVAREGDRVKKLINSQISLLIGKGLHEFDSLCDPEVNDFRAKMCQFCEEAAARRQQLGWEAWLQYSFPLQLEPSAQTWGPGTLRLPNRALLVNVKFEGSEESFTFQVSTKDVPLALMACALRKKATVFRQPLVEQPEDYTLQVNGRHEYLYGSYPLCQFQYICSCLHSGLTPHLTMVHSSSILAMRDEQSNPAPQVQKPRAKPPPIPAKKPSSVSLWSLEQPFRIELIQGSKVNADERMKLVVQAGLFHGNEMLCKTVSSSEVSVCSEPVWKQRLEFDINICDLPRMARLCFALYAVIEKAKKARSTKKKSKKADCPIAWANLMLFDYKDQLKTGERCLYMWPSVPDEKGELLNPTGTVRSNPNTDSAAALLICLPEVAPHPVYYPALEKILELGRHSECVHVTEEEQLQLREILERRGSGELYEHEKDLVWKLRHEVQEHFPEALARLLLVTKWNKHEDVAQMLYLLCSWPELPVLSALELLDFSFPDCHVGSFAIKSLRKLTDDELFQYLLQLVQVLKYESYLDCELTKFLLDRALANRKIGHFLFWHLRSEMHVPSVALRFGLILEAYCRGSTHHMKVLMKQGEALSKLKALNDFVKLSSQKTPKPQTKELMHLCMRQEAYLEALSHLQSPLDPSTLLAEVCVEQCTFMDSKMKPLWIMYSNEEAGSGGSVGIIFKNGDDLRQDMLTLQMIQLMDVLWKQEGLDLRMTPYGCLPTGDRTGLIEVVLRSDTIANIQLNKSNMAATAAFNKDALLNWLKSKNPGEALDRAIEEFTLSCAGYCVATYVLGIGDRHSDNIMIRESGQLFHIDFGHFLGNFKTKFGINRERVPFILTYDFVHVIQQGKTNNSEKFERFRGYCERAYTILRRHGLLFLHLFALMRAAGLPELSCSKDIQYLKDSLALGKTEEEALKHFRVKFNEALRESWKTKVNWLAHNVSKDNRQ

[19] = target: Casein kinase I isoform delta (Homo sapiens, UniProt P48730); assay: Inhibition of human CK1delta using casein as substrate in presence of [gamma-32P]-ATP
[20] = Inhibition of porcine brain tubulin polymerization measured every min for 1 hr by fluorescence assay; parameters: species or system Sus scrofa
[21] = target: Casein kinase I isoform epsilon (Homo sapiens, UniProt P49674); assay: Inhibition of human CK1epsilon using casein as substrate in presence of [gamma-32P]-ATP
Sequence of Casein kinase I isoform epsilon (P49674 whole entry, canonical isoform): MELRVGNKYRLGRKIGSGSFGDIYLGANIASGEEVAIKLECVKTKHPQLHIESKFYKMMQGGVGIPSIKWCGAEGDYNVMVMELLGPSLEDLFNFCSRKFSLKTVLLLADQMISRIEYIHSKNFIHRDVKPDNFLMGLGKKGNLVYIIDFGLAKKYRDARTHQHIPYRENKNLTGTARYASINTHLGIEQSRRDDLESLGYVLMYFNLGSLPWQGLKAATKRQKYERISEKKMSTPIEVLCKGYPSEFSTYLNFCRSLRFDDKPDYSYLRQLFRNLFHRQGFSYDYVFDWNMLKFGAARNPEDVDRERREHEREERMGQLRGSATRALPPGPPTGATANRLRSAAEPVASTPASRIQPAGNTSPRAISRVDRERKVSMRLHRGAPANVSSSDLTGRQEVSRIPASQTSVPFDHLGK

Sequence of Bromodomain-containing protein 3 (Q15059 whole entry): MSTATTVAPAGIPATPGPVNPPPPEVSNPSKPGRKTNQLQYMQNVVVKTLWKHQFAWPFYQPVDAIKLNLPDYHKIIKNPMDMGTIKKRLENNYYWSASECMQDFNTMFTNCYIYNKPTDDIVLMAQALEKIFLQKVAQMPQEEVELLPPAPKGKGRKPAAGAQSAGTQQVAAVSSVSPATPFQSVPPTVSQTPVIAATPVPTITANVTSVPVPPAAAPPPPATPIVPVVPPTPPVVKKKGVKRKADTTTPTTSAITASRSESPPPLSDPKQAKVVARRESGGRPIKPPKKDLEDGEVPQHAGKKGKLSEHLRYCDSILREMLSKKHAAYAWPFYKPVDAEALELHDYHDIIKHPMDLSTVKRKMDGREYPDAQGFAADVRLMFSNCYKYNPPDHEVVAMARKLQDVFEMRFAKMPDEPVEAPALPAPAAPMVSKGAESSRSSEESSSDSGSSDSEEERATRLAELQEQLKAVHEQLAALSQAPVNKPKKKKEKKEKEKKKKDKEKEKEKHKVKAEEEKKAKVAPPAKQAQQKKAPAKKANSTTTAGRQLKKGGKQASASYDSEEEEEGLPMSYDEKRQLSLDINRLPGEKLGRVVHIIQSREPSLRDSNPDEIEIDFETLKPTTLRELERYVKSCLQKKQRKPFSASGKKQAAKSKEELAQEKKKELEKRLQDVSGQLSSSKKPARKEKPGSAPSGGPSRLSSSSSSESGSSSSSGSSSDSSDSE
Sequence of Bromodomain-containing protein 2 (P25440 whole entry, canonical isoform): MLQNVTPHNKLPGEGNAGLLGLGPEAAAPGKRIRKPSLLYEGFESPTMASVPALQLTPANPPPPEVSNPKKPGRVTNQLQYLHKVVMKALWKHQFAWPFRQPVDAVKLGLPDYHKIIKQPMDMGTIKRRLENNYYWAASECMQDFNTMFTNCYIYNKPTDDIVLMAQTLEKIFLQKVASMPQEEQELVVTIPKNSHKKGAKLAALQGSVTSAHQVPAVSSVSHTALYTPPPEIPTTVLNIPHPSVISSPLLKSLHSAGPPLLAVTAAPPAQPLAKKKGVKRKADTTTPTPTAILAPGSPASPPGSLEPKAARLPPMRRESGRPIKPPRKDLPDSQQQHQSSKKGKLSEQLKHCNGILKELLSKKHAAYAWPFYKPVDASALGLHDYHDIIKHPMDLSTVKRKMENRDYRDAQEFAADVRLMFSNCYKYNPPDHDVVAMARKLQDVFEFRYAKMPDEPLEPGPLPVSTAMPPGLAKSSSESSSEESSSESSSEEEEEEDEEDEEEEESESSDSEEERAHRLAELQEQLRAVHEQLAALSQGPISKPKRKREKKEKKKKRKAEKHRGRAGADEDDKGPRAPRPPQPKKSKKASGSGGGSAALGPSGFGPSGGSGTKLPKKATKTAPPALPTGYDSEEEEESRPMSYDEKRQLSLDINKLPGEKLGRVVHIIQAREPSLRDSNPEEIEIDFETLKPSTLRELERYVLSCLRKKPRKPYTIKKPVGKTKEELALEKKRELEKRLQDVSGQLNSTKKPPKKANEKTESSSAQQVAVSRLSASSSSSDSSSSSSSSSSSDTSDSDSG
Sequence of MAP kinase-activated protein kinase 2 (P49137 whole entry, the tested form may be a part): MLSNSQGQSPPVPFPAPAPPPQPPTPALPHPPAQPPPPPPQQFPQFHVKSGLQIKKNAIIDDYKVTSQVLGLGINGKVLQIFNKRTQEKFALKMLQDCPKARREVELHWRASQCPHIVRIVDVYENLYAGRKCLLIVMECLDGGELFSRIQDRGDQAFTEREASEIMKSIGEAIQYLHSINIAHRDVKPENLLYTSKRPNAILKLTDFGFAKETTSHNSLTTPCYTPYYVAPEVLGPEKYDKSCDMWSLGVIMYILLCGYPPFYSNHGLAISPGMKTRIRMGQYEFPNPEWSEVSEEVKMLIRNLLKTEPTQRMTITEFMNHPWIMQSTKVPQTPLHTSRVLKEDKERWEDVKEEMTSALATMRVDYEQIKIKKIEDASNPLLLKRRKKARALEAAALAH
Sequence of Indoleamine 2,3-dioxygenase 1 (P14902 whole entry, the tested form may be a part): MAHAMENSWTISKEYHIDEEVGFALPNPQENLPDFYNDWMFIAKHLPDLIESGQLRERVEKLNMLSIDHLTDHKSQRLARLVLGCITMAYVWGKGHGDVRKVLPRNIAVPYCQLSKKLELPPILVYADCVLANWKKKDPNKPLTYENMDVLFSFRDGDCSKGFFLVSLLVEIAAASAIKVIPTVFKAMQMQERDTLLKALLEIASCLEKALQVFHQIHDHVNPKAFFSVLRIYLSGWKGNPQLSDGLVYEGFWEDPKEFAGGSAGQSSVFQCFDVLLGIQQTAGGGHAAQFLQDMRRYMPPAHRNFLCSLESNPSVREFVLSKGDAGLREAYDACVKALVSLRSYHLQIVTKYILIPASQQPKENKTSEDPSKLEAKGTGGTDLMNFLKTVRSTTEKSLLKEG
Sequence of Mitogen-activated protein kinase 14 (P47811 whole entry, the tested form may be a part): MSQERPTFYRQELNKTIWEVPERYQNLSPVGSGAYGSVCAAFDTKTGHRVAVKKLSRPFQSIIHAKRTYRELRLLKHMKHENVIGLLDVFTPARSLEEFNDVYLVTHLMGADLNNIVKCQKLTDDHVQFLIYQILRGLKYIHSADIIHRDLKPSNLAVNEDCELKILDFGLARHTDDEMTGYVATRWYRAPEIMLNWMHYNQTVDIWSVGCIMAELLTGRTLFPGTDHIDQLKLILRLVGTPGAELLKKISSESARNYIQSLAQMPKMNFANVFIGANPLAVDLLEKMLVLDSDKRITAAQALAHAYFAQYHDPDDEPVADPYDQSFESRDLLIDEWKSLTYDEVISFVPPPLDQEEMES
Sequence of Casein kinase I isoform delta (P48730 whole entry, canonical isoform): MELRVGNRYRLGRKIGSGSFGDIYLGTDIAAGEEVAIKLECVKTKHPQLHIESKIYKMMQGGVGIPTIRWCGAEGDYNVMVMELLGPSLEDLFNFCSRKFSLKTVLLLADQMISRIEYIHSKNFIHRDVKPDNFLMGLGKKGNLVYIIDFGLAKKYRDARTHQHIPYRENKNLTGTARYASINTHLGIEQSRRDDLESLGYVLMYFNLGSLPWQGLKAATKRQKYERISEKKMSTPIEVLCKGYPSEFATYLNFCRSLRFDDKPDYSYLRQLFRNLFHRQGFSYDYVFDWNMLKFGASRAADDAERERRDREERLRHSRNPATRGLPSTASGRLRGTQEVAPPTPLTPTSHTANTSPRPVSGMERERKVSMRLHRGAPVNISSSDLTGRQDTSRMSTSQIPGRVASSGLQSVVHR

For `Cc1cn(-c2cc(NC(=O)c3ccc(C)c(Nc4nccc(-c5cccnc5)n4)c3)cc(C(F)(F)F)c2)cn1` [NILOTINIB], the IC50 [1] was 1.8 µM.

`Oc1ccc(-c2nc(-c3ccc(F)cc3)c(-c3ccncc3)[nH]2)cc1` [SB-202190] showed a Kd [2] of 3.4 µM.

For `O=C1NC(=O)[C@@H](c2cn3c4c(cccc24)CCC3)[C@@H]1c1c[nH]c2ccccc12` [TIVANTINIB], the EC50 [3] was under 1 µM.

In the case of `CCCS(=O)(=O)Nc1ccc(F)c(C(=O)c2c[nH]c3ncc(-c4ccc(Cl)cc4)cc23)c1F` [VEMURAFENIB], the EC50 [4] is reported as 5.01 µM.

Compound `CC1(C)CC2CC(C)(CN2c2ncnc3[nH]cnc23)C1` (configuration not stated) has an IC50 [5] of 0.1 to 0.22 µM.

`C[S+]([O-])c1ccc(-c2nc(-c3ccc(F)cc3)c(-c3ccncc3)[nH]2)cc1` (configuration not stated) gave a ΔTm [6] of 0.85 °C and a ΔTm [7] of 1.3 °C.

`CN1C(=O)C(Cc2c[nH]c3ccccc23)NC1=S` (configuration not stated) [NECROSTATIN] gave an IC50 [8] of 115 µM and an IC50 [9] of 0.182 µM.

Compound `CN(c1ccccc1CNc1nc(Nc2ccc3c(c2)CC(=O)N3)ncc1C(F)(F)F)S(C)(=O)=O` has a Kd [2] of 0.445 µM.

Work on `Cc1cnc(Nc2ccc(N3CCN(C)CC3)cc2)nc1Nc1cccc(S(=O)(=O)NC(C)(C)C)c1` yielded an IC50 [10] of 0.025 µM.

Work on `O=C(c1ccccc1-c1ccccc1)N1CCc2c([nH]c3ccccc23)C1` yielded an EC50 [11] of under 1 µM.

`Cc1ccc(-c2ccc3c(ccc4sc5c(c43)NC[C@@H](C)NC5=O)n2)cn1` gave a Ki [12] of 0.005 µM.

For `O=C(CCCc1ccc(-c2ccccc2F)cc1)Nc1ccc(O)cc1`, the EC50 [13] was under 1 µM and the IC50 [14] was 0.33 µM.

`Nc1nc(NCCc2ccccc2)c2nc[nH]c2n1` showed an IC50 [5] of 0.1 to 0.22 µM.

Work on `O=c1cc(N2CCOCC2)oc2c(-c3ccccc3)cccc12` [LY-294002] yielded an IC50 [15] of 13.7 µM, an IC50 [16] of 12.4 µM and an IC50 [17] of 10.3 µM. For the same compound, the IC50 [18] was 1.53 µM.

Work on `CC[C@@H]1C(=O)N(C)c2cnc(Nc3ccc(C(=O)N[C@H]4CC[C@H](N5CCN(CC6CC6)CC5)CC4)cc3OC)nc2N1C(C)C` [VOLASERTIB] yielded a Kd [2] of 0.079 µM.

With `COc1cc(OC)c(/C=C2/C(=O)Nc3ccccc32)c(OC)c1` the IC50 [19] was 1 to 25 µM, the EC50 [20] was under 1 µM and the IC50 [21] was 1 to 25 µM.

`O=c1cc(N2CCNCC2)oc2c(-c3ccccc3)cccc12` gave an IC50 [15] of 11.5 µM, an IC50 [16] of 9.05 µM and an IC50 [17] of 7.4 µM.
